Measured values: PubChem BioAssay AID1645865 (Buhrlage Lab, Dana-Farber Cancer Institute and Novartis …, 2021)
Activity calls are given as the source filed them.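 How the source made its calls: active means maximal inhibition of the USP30 enzyme reaching 30% or more across the dose series; inactive means the rest.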

Each compound was assayed against Ubiquitin carboxyl-terminal hydrolase 30 (Homo sapiens) (UniProt Q70CQ3) (assay: ubiquitin-specific protease 30 DUB inhibitors, concentration-effect, biochemical, validation of primary actives (AID 1645865)). Conditions: purified USP30, Ub-rhodamine cleavage, fluorescence, 2 h.
Chain of Ubiquitin carboxyl-terminal hydrolase 30 (Homo sapiens) (Q70CQ3 whole entry, looked up): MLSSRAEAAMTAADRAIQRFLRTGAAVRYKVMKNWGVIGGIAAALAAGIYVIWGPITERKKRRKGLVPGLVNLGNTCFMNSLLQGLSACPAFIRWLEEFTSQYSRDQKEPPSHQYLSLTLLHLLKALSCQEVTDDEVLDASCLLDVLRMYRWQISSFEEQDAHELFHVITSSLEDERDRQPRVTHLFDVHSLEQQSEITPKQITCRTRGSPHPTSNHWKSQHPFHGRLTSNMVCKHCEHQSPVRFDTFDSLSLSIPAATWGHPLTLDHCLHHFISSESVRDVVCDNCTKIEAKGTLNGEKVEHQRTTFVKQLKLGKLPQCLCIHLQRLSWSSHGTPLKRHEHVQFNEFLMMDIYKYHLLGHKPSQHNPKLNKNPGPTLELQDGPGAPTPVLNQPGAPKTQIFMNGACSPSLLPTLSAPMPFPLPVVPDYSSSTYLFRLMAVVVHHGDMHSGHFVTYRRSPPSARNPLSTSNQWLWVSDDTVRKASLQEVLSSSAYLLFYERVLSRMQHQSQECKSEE

Question: For `CC1=C(C)C(c2c(-c3ccc(C)cc3)[nH]c3ccccc23)N(C(C)(C)C)C1=O` (stereo not given), which IC50 is on record?
Answer: The IC50 was 1.85 µM.

Question: With `COc1ccc(CC(=O)Nc2nc(-c3ccco3)c(-c3ccco3)s2)cc1` as the compound, how does the IC50 read?
Answer: The IC50 was > 50 µM (inactive).

Question: How did the IC50 turn out when `COc1ccc(-c2nc3n(n2)C(c2cccc(O)c2)C2=C(CCCC2=O)N3)cc1` (stereo not given) was run?
Answer: The IC50 was 38.2 µM.

Question: With `O=S(=O)(c1cccc(F)c1)N1CCc2nc3ccccc3n2CC1` as the compound, how does the IC50 read?
Answer: The IC50 was 3.76 µM.

Question: For `Cc1ccccc1OCCC(=O)Nc1cccc(S(=O)(=O)Nc2ccccc2Cl)c1`, which IC50 is on record?
Answer: Its IC50 is > 50 µM (inactive).

Question: How did the IC50 turn out when `CCc1ccc(NC(=O)COC(=O)c2n[nH]c3ccccc23)cc1` was run?
Answer: Its IC50 is 4.4 µM.

Question: Which IC50 does the source give for `CC(Nc1ncnc2c1sc1nc(N3CCOCC3)c3c(c12)CCC3)c1ccccc1` (stereo not given) here?
Answer: Its IC50 is 3.65 µM.

Question: With `CS(=O)(=O)N1CCCN(c2nc3cc(Cl)ccc3n3cccc23)CC1` as the compound, how does the IC50 read?
Answer: Its IC50 is > 50 µM (inactive).

Question: For `CNC(=O)c1cc2nc(N(C)C)n(-c3ccc(F)cc3)c2s1`, which IC50 is on record?
Answer: Its IC50 is > 50 µM (inactive).

Question: How did the IC50 turn out when `O=C(NC1CCN(Cc2ccccc2)CC1)c1[nH]nc2c1CCc1ccccc1-2` was run?
Answer: The IC50 was > 50 µM (inactive).

Question: For `Cc1ccc(NC(=O)CCC(=O)Nc2ccc3nc(N4CCCCC4)cc(C)c3c2)c(Br)c1`, which IC50 is on record?
Answer: Its IC50 is 36.4 µM.

Question: `Cc1ccc2c(c1)N(C)C(=O)c1cc(NC(=O)c3ccc(F)cc3)ccc1O2` was tested. Which IC50 did it give?
Answer: The IC50 was 2.71 µM.

Question: With `O=C(c1ccc2occc2c1)N1CCC(S(=O)(=O)c2ccc(-c3ccco3)cc2)CC1` as the compound, how does the IC50 read?
Answer: Its IC50 is > 50 µM (inactive).

Question: With `O=C(/C=C/c1ccccc1)N1CCN(C2=NS(=O)(=O)c3ccccc32)CC1` as the compound, how does the IC50 read?
Answer: Its IC50 is > 50 µM (inactive).

Question: Which IC50 does the source give for `COc1ccc2nc(Nc3ncc4c(n3)CCCC4=O)nc(C)c2c1` here?
Answer: The IC50 was > 50 µM (inactive).

Question: `Cc1ccc(Cn2c(=O)n(CCC(=O)NCCc3ccccc3)c(=O)c3ccccc32)cc1` was tested. Which IC50 did it give?
Answer: Its IC50 is 5.14 µM.

Question: `O=c1ccc(-c2noc(Cc3cccc(Cl)c3)n2)c[nH]1` was tested. Which IC50 did it give?
Answer: Its IC50 is > 50 µM (inactive).

Question: How did the IC50 turn out when `CN(C)c1cccc(C(=O)Nc2cc(-c3cccnc3)no2)c1` was run?
Answer: Its IC50 is 16.6 µM.

Question: How did the IC50 turn out when `O=C(c1nnn(Cc2ccc(Cl)cc2)c1-n1cccc1)N1CCCC1` was run?
Answer: Its IC50 is > 50 µM (inactive).

Question: For `O=C(Nc1ccccc1-c1nc2ccccc2[nH]1)c1sc2ccccc2c1Cl`, which IC50 is on record?
Answer: Its IC50 is 1.76 µM.

Question: Which IC50 does the source give for `CC(C)(C)C(=O)Nc1ccc(C(=O)Nc2cccc(-c3nnc(-c4ccccc4)o3)c2)cc1` here?
Answer: The IC50 was 2.28 µM.

Question: With `Cc1ccccc1C(=O)Nc1ccc(Cc2ccc(NC(=O)c3ccccc3C)c(O)c2)cc1O` as the compound, how does the IC50 read?
Answer: The IC50 was > 50 µM (inactive).

Question: For `CC1CC(=O)Nc2ccccc2N1S(=O)(=O)c1ccc(C#N)cc1` (stereo not given), which IC50 is on record?
Answer: Its IC50 is > 50 µM (inactive).

Question: Which IC50 does the source give for `COc1ccc(CN=C2NS(=O)(=O)C(c3ccc(F)cc3)=C2C)cc1OC` here?
Answer: The IC50 was 25.8 µM.

Question: With `CNC(=O)c1cc2nc(N(C)C)n(-c3ccccc3)c2s1` as the compound, how does the IC50 read?
Answer: The IC50 was > 50 µM (inactive).

Question: For `O=C(Cn1cnc(-c2noc(-c3ccncc3)n2)c1)N1CCN(c2ccccc2F)CC1`, which IC50 is on record?
Answer: Its IC50 is > 50 µM (inactive).

Question: With `Cc1cc2nc(Oc3cccc(Cl)c3)c3ccccc3n2n1` as the compound, how does the IC50 read?
Answer: The IC50 was 2.04 µM.

Question: Which IC50 does the source give for `COc1ccc(CCNC(=O)CSc2cn(CCNC(=O)c3ccc(F)cc3)c3ccccc23)cc1OC` here?
Answer: Its IC50 is 19.9 µM.

Question: Which IC50 does the source give for `N#Cc1cccc(NC(=O)Cn2cccc(-c3nc(-c4ccccc4)no3)c2=O)c1` here?
Answer: Its IC50 is > 50 µM (inactive).

Question: Which IC50 does the source give for `CC1=C(C)C(N(c2ccccc2)c2ccccc2)N(CCC(C)C)C1=O` (stereo not given) here?
Answer: The IC50 was 36.1 µM.

Question: For `COc1ccc(-c2cc(-c3ccc(O)cc3)nc(N)c2C#N)cc1OC`, which IC50 is on record?
Answer: Its IC50 is > 50 µM (inactive).

Question: `O=C(Nc1ccc2nccnc2c1)c1cccc(C(F)(F)F)c1` was tested. Which IC50 did it give?
Answer: The IC50 was > 50 µM (inactive).

Question: Which IC50 does the source give for `CC1CCCN(S(=O)(=O)c2cc3cc(F)ccc3oc2=O)C1` (stereo not given) here?
Answer: Its IC50 is 21.6 µM.

Question: How did the IC50 turn out when `COc1ccc(C(=O)Nc2n[nH]c(C)c2-c2cccc(C)c2)c(OC)c1` was run?
Answer: Its IC50 is 2.31 µM.

Question: `O=C(COc1ccc(F)cc1)Nc1cnc(-c2ccc(Cl)cc2)nc1` was tested. Which IC50 did it give?
Answer: Its IC50 is 38 µM.

Question: `COc1ccc2nc(-c3ccc(NC(=O)c4cccc(OC)c4OC)cc3)cn2n1` was tested. Which IC50 did it give?
Answer: Its IC50 is 1.89 µM.

Question: With `COc1ccc(CCNC(=O)c2cn(-c3ccc(F)cc3)nn2)cc1OC` as the compound, how does the IC50 read?
Answer: Its IC50 is 6.79 µM.

Question: With `CCc1cc2cc3c(cc2nc1SCC(=O)Nc1cccc(C(C)=O)c1)OCO3` as the compound, how does the IC50 read?
Answer: The IC50 was 2.13 µM.

Question: For `Cn1c(-c2nnc(SCC(=O)Nc3ccccc3F)o2)cc2ccccc21`, which IC50 is on record?
Answer: Its IC50 is 14 µM.

Question: Which IC50 does the source give for `CC(C)(C)N=C1Nc2ncccc2NC12CCCN(C(=O)c1ccccc1)C2` (stereo not given) here?
Answer: Its IC50 is > 50 µM (inactive).

Question: `COc1cccc(-c2nc3cnccn3c2NCc2ccc3c(c2)OCO3)c1` was tested. Which IC50 did it give?
Answer: Its IC50 is > 50 µM (inactive).

Question: How did the IC50 turn out when `CC1Cc2ccccc2N1C(=O)Cn1c(=O)cc(O)c2ccccc21` (stereo not given) was run?
Answer: Its IC50 is > 50 µM (inactive).

Question: `COc1ccccc1NC(=O)Cn1cc(C(=O)c2ccc(C)cc2)c(=O)c2cc(Cl)ccc21` was tested. Which IC50 did it give?
Answer: The IC50 was 3.86 µM.

Question: How did the IC50 turn out when `CCCCN(C)C(=O)c1cc2c(=O)n3cccc(C)c3nc2n1Cc1ccccc1` was run?
Answer: Its IC50 is 36.8 µM.

Question: With `COc1ccccc1-c1nc(Cn2nnc(C(=O)Nc3cc(C)cc(C)c3)c2N)c(C)o1` as the compound, how does the IC50 read?
Answer: The IC50 was 39.7 µM.

Question: `COc1ccccc1Nc1ncc(C(=O)NCCc2ccc(Cl)cc2)c2ccccc12` was tested. Which IC50 did it give?
Answer: The IC50 was 2.59 µM.

Question: With `Cc1ccc(CNC(=O)c2cccc(N3C(=O)N4CCc5c([nH]c6ccccc56)[C@@]4(C)C3=O)c2)cc1` as the compound, how does the IC50 read?
Answer: Its IC50 is 15.3 µM.

Question: How did the IC50 turn out when `Cc1ccccc1Cn1cc(SCC(=O)Nc2ccc3c(c2)OCCO3)c2ccccc21` was run?
Answer: The IC50 was > 50 µM (inactive).

Question: Which IC50 does the source give for `Cc1cc2nc(/C=C/c3ccccc3)n(Cc3cccc(F)c3)c2cc1C` here?
Answer: Its IC50 is > 50 µM (inactive).

Question: `O=C(Nc1ccccc1Cl)N(Cc1cc2cc3c(cc2[nH]c1=O)OCCO3)C1CCCCC1` was tested. Which IC50 did it give?
Answer: The IC50 was 35.5 µM.

Question: For `O=C(Nc1ccc2c(c1)OCCO2)c1cc(CN2CCCC2)on1`, which IC50 is on record?
Answer: The IC50 was > 50 µM (inactive).

Question: Which IC50 does the source give for `COc1ccc(-c2cc3nc([C@@H](C)NC(=O)c4ccc5c(c4)OCO5)nn3cn2)cc1` here?
Answer: The IC50 was > 50 µM (inactive).

Question: For `O=c1[nH]c2ccccc2cc1CN(Cc1ccco1)S(=O)(=O)c1ccc(F)cc1`, which IC50 is on record?
Answer: Its IC50 is > 50 µM (inactive).

Question: Which IC50 does the source give for `COc1ccc(NC(=O)c2nnn(-c3ccccc3F)c2C)cc1OC` here?
Answer: Its IC50 is > 50 µM (inactive).

Question: `COc1cccc(CN2CCc3nc4nc(C)ccc4cc3C2)c1` was tested. Which IC50 did it give?
Answer: The IC50 was > 50 µM (inactive).

Question: Which IC50 does the source give for `Cc1ccc(NC(=O)c2c3c(nc4ccccc24)CCCCC3)c(C)c1` here?
Answer: Its IC50 is > 50 µM (inactive).

Question: How did the IC50 turn out when `Cc1ccc(NC(=O)c2ccn(COc3ccc(F)cc3)n2)nc1` was run?
Answer: Its IC50 is 24.8 µM.

Question: Which IC50 does the source give for `Cc1ccc2c(c1)c(=O)c(C(=O)c1ccc(F)cc1)cn2CC(=O)Nc1ccc2c(c1)OCCO2` here?
Answer: The IC50 was > 5 µM (inactive).

Question: How did the IC50 turn out when `Cc1cc(NC(=O)COc2ccc3oc4ccccc4c3c2)no1` was run?
Answer: The IC50 was > 50 µM (inactive).

Question: How did the IC50 turn out when `COc1ccccc1C(=O)NCC(c1ccc2c(c1)CCCN2C)N1CCCC1` (stereo not given) was run?
Answer: Its IC50 is > 50 µM (inactive).

Question: With `COc1ccccc1CNC(=O)c1ccc(CSc2nc3ccncc3n2Cc2ccccc2)cc1` as the compound, how does the IC50 read?
Answer: Its IC50 is 44.9 µM.

Question: Which IC50 does the source give for `O=C(Nc1ccc(-c2cn3ccsc3n2)cc1)c1ccc(Cl)c([N+](=O)[O-])c1` here?
Answer: Its IC50 is 1.27 µM.

Question: With `CC[C@H](C)C[C@H]1CC[C@](O)([C@](C)(O)C(=O)N[C@@H]2C(=O)N3NCCC[C@@H]3C(=O)N(O)[C@@H](C)C(=O)NCC(=O)N3NCCC[C@H]3C(=O)N(O)[C@H](C)C(=O)O[C@H]2C(C)C)O[C@@H]1C` as the compound, how does the IC50 read?
Answer: The IC50 was 2.09 µM.

Question: With `Cc1ccc(-c2nc(-c3ccccc3)c(S(=O)(=O)CC(=O)Nc3ccc(C)c(C)c3)[nH]2)cc1` as the compound, how does the IC50 read?
Answer: The IC50 was > 50 µM (inactive).

Question: For `Cc1cc(=O)n(C)c2c(O)c3c(cc12)c(C)cc(=O)n3C`, which IC50 is on record?
Answer: The IC50 was > 50 µM (inactive).

Question: For `COc1ccc(-n2ccn3c(CCC(=O)NCc4ccc(F)cc4)nnc3c2=O)cc1`, which IC50 is on record?
Answer: The IC50 was 25.9 µM.

Question: With `Cc1nn(-c2ccc(F)cc2)cc1-c1noc(C(=O)NCc2ccccn2)n1` as the compound, how does the IC50 read?
Answer: Its IC50 is 27.7 µM.

Question: How did the IC50 turn out when `COc1cccc(-c2nc(C(N)=O)c3[nH]c(=O)n(-c4cccc(Cl)c4)c3n2)c1OC` was run?
Answer: The IC50 was > 50 µM (inactive).

Question: With `O=C(Nc1cccc2ccccc12)C1CCCN(S(=O)(=O)Cc2ccccc2)C1` (stereo not given) as the compound, how does the IC50 read?
Answer: Its IC50 is 4.36 µM.

Question: `Cc1cc(NC(=O)c2cc(-c3cccnc3)n[nH]2)ccc1Br` was tested. Which IC50 did it give?
Answer: Its IC50 is 1.26 µM.
